Experiments:
[1] = tested on: metastatic pancreatic cancer; details: cited from earlier work
[2] = tested on: phosphorylation of Akt; test: Serum (FBS)-stimulated phosphorylation of Akt and downstream effectors in Capan-1 cells; format: cell-based, human; details: Capan-1, after 10 min stimulation with serum
Protocol: Light amino acid-labelled and heavy amino acid-labelled Capan-1 cells (respectively called thereafter “light” and “heavy” cells) were washed twice with phosphate buffer saline (PBS; SIGMA; D8537), trypsined (GE Healthcare; L11-002) and plated at a concentration of 2.5.10^6 cells in a 14.4 cm-diameter dish (Dutscher, 055063). After 48 h, cells were serum-starved during 16 h, over-night. Light and heavy cells were pre-treated respectively with inhibitors or their accordingly diluted vehicule (DMSO) (for drug description and used concentration) during 1 h, then stimulated or not for 10 min or 24 h with 2% dialysed FBS. After 10 min and 24 h of FBS stimulation, heavy cells and light cells were maintained on ice, washed three times with cold PBS and lysed.
(§1) In pancreatic cancer, PI3K signalling is associated with a poor prognosis. […] However, this was not always coupled to a significant increase in the phosphorylation levels of canonical targets, pPRAS40 or pS6K, in all patients (data not shown), emphasizing the importance of other signalling targets downstream PI3Ks. Long-term inhibition of a core signal node is believed to induce an adaptive modification of the entire signal network. We tested if long-term inhibition of each PI3K isoforms induces a differential change in pancreatic cancer cell adaptation. To answer this question, we devise a strategy to globally identify this adaptive response focusing on phospho-site regulated signalling pathways (data not shown). […] Serum, which consist of a combination of RTK and GPCR stimuli mimicking physiopathological signalling, induces after 10 min a significant activation of class I PI3Ks as assessed by the phosphorylation of Akt and known downstream effectors PRAS40, S6K, S6 (data not shown). […] We thus chose these stimulation conditions to identify differential phosphoproteome across time in response to three PI3K iso form-selective drugs after SILAC metabolic labelling and enrichment in trypsine-based phosphopeptides by TiO2 beads allowing a robust S/T/Y phosphorylation quantification of thousands of proteins.

[3] = tested on: phosphorylation of Akt; test: RTK-driven (EGF) or GPCR-driven (LPA) short-term phosphorylation of Akt; format: cell-based, human; details: data not shown
Description: as §1

[4] = monotherapy, gemcitabine-resistant metastatic pancreatic cancer patient

Nc1ccn([C@@H]2O[C@H](CO)[C@@H](O)C2(F)F)c(=O)n1 [gemcitabine]
patient survival ([1]; standard of line chemotherapy, pancreatic cancer patients): increases their survival of only a few weeks

Cc1nc(NC(=O)N2CCC[C@H]2C(N)=O)sc1-c1csc(C(C)(C)C)n1 [A66]
pS473 and pT308Akt levels [2]: significantly inhibited
RTK-driven (EGF) short-term phosphorylation of Akt ([3]; EGF stimulation): inhibited

Cc1cc(C(C)Nc2ccccc2)c2nc(N3CCOCC3)cc(=O)n2c1 (centres unmarked) [TGX-221]
pS473 and pT308Akt levels [2]: significantly inhibited

O=C1NC(=O)/C(=C/c2ccc(-c3ccc(F)cc3O)o2)S1 [AS-252424]
pS473 and pT308Akt levels [2]: significantly inhibited
GPCR-driven (LPA) short-term phosphorylation of Akt ([3]; LPA stimulation): inhibited

CO[C@H]1C[C@@H]2CC[C@@H](C)[C@@](O)(O2)C(=O)C(=O)N2CCCC[C@H]2C(=O)O[C@H]([C@H](C)C[C@@H]2CC[C@@H](OCCO)[C@H](OC)C2)CC(=O)[C@H](C)/C=C(\C)[C@@H](O)[C@@H](OC)C(=O)[C@H](C)C[C@H](C)/C=C/C=C/C=C/1C [RAD001]
clinical action [1, 4]: only a minimal clinical action
tolerability [1, 4]: well tolerated

— patent publication US12000833B2, “Marker for predicting the sensitivity to PI3K inhibitors” (INSERM (INSTITUT NATIONAL DE LA SANTE ET DE LA RECHERCHE …, priority 2017, dated 2024)
